Results: patent US20240245707A1, “COMPOSITIONS FOR TREATING INSOMNIA AND USES THEREOF” (Zhejiang Jiachi Development Pharmaceuticals LTD., priority 2021, published 2024)
“And” between values parts separate entries of the source, which are not always exact repeats. Equal entries are not always repeated. “Also recorded” adds a separate entry of the source.

Assays:
[1] = tested on: postmenopausal women having insomnia; test: Self-assessment of insomnia with Athens Insomnia Scale (AIS) before and after taking anordrin; assay type: in vivo, human
Description: Insomnia is usually measured using sleep disorder questionnaire (SDQ) such as Pittsburgh sleep quality index (PSQI), Epworth Sleeping Scale or the Athens Insomnia Scale (AIS), or using sleep quality monitor to count sleep dysfunction rating scale (SDRS). AIS is the one of popularly used SEQ. It is measured by assessing eight factors amongst which first five factors are related to nocturnal sleep and last three factors are related to daytime dysfunction. These are rated on a 0-3 scale and the sleep is finally evaluated from the cumulative score of all factors and reported as an individual's sleep outcome. Over the period of time, AIS is considered to be an effective tool in sleep analysis, and it is validated in various countries by testing it on local patients. A cut-off score of at least 6 on the AIS is used to establish the diagnosis of insomnia. See Soldatos C R, Dikeos D G, Paparrigopoulos T J (2002). “The diagnostic validity of the Athens Insomnia Scale”. J Psychosom Res. 55 (3): 263-7.
Individuals who have taken anordrin (less than 1 mg) were self-assessed for the presence and the extent of insomnia before and after they took anordrin. Specifically, thirteen postmenopausal women took anordrin for about two weeks to a few months. Their sleep quality were evaluated with Athens Insomnia Scale (AIS).

[2] = tested on: postmenopausal women with chronic insomnia; test: Phase II clinical trial of α-anordrin enteric-coated tablets, Athens Insomnia Scale (AIS) index, preliminary results; assay type: in vivo, human
Description: This Phase II clinical trial uses a randomized, double-blind, parallel-controlled design and is conducted in three clinical trial centers. A total of three drug groups are pre-set which are a) the 0.05 mg/day dosing group, b) the 0.1 mg/day dosing group, and c) the 0.15 mg/day dosing group as well as the placebo group. The drug intervention period is 8 weeks, and the drug intervention is followed up for 4 weeks. Primary efficacy endpoint includes vaginal detachment cell maturity index and dryness in postmenopausal women. Secondary efficacy endpoint includes quality in postmenopausal women, vaginal microecological index, vaginal pH in postmenopausal women, as well as the safety endpoint. The effectiveness and safety of different doses of α-anordrin tablets are preliminarily evaluated.
Group 1 (0.05 mg dose group): daily oral administration of one 0.05 mg α-anordrin enteric-coated tablet. Group 2 (0.1 mg dose group): daily oral administration of one 0.1 mg α-anordrin enteric-coated tablet. Group 3 (0.15 mg dose group): daily oral administration of one 0.15 mg α-anordrin enteric-coated tablet. Group 4: placebo group. […]

[3] = tested on: rat primary neuronal cells; test: ATP level of neuronal cells treated with anordrin (ATP assay kit); assay type: cell-based; details: 10 nM anordrin, 24 hours, vs vehicle; FIG. 5
Description: See Chikahisa et al., Front Neurol. 2011; 2: 87.
Materials and equipment include cell culture medium, FBS and Charcoal stripped FBS, ATP assay kit (Thermofisher) and rat primary neuronal cells (Wuhan servisebio).
Primary neuronal cells (2×10^6) were grew in medium containing 10% FBS in 6 well plates for 24 hours. Then the medium was replaced with phenol red free medium contain 5% Charcoal stripped FBS for 24 hours. 10 nM anordrin or vechile were added in medium for 24 hours, and then cells were harvested. The fluorescence density of ATP was assayed using ATP assay kit following manufacture's instruction.

C#C[C@@]1(OC(=O)CC)C[C@@H]2CC[C@@H]3[C@H](CC[C@@]4(C)[C@H]3CC[C@]4(C#C)OC(=O)CC)[C@@]2(C)C1 [anordrin, 2α, 17α-diethynyl-A-nor-5α-androstane-2β,17β-diol dipropionate]
decrease of the average number of AIS ([1]; after vs before treatment, thirteen postmenopausal women): 63%
postmenopausal women having insomnia that exhibited a significant improvement in sleeping ([1]; anordrin at various dosages, Example 1): 100%
numbers of AIS for each patient after treatment (in words) ([1]; thirteen postmenopausal women, FIG. 3 and Table 1): significantly decreased
Average # of AIS after treatment ([1]; thirteen postmenopausal women, average before treatment 17.4, STDEV 1.2, p value <0.0001): 6.3
AIS number (after treatment) ([2]; one patient per row, 0.05 mg/day oral, before treatment 12-19, preliminary results): 4 and 5 (2×)
sleeping quality after treatment (in words) ([2]; three patients, 0.05 mg/day): significantly improved sleeping quality
ATP level of neuronal cells [3]: significantly increased; also recorded: induces ATP surge
